Earlier results, collected in US20210329915A1, “ABSORPTION PROMOTER, FLYING-INSECT PEST REPELLENT FRAGRANCE-CONTAINING COMPOSITION, AND FLYING-INSECT PEST REPELLENT PRODUCT” (DAINIHON JOCHUGIKU Co., Ltd., priority 2018, published 2021).

Row | SMILES | Vapor pressure at 20° C.
1 | OCCOCc1ccccc1 [benzyl glycol] | 2.7 Pa
2 | OCCOCCO [diethylene glycol] | 3 Pa
3 | OCCOCCOCCO [triethylene glycol] | 1 Pa
4 | CC(O)COC(C)COC(C)CO (stereo not drawn) [tripropylene glycol] | 0.67 Pa
5 | CCCCOCCOCCO [diethylene glycol monobutyl ether] | 3 Pa
6 | CC(O)CO (stereo not drawn) [propylene glycol] | 10.7 Pa
